{
  "source": "patent US5466717A",
  "about": "“Halogenated 4'-methoxyacetophenones as microbicides and preservatives” (Buckman Laboratories Int'l, Inc., priority 1993, dated 1995)",
  "key": {"[1]": {"tested_on": "Desulfovibrio desulfuricans", "experiment": "Effectiveness against sulfate reducing bacterium, Method API Rp 38 (Table 7)", "type": "cell-based", "parameters": "key: 4: excellent; 3: good; 2: poor; 1: very poor, scant, questionable; 0: no growth", "conditions": "pH 7.0, duplicates", "procedure": "The effectiveness of compounds 1 and 2 against Desulfovibrio desulfuricans,a sulfate reducing bacterium, was determined using the method recommended by the American Petroleum Institute (Method API Rp 38). The composition of the sulfate-reducer medium for the bacteriostatic test is as follows: The ingredients are dissolved by gentle heating with constant stirring. […] If necessary, the medium is then filtered through Whatman No. 1 or No. 2 filter paper. Following filtration, the medium is autoclaved at 15 lb steam pressure for […]. After autoclaving, the medium is allowed to cool slightly and the iron salt, Fe(SO4)2 (NH4)2.6H2 O, is added. The pH is then checked and readjusted if necessary. The medium is now cooled to room temperature as rapidly as possible, without agitation. After cooling, the medium is inoculated from the third successive 24-hour transfer of an actively growing culture (a liquid culture which turns black within 24 hours after inoculation) of sulfate-reducing bacteria. Ten milliliters of inoculum are added to each liter of medium. From stock solutions of the chemical to be screened, sufficient amounts of the compounds are added to 1- or 2-oz clear bottles so that the desired concentrations of chemicals are present when the containers are filled. The amount of stock solution added cannot exceed 10 percent of the volume of the test bottle. After addition of the chemical, the bottles are completely filled with the inoculated medium. The bottles are then capped with plastic caps containing cork and aluminum foil or Teflon liners and are incubated at 30°±2° C. All work is done in duplicate with at least three controls for each series. The controls consist of bottles filled with inoculated medium only. Growth of sulfate-reducing bacteria in the bottles is indicated by an intense blackening of the medium, whereas containers having sufficient chemical to inhibit growth will remain clear. Bottles with no sulfate-reducing bacteria growth are observed for a period of 28 days after the controls have blackened. The results were recorded using a +/0 scale where \"+\" indicates growth and \"0\" indicates no growth."}, "[2]": {"tested_on": "P. aeruginosa", "experiment": "Basal salts method, percentage kill of P. aeruginosa (Table 5)", "type": "cell-based", "conditions": "Pseudomonas aeruginosa", "procedure": "(§1) Compounds 1 and 2 were tested against bacterial growth by the basal salts method described in U.S. Pat. No. 2,881,070, Column 5, line 12--Column 6, line 53. The disclosure of U.S. Patent No. 2,881,070 is specifically incorporated here by reference."}, "[3]": {"tested_on": "Enterobacter aerogenes", "experiment": "Pulp substrate method, percent kill of E. aerogenes (Table 2)", "type": "cell-based", "conditions": "for killing at 1 ppm / killing at 2 ppm / killing at 4 ppm / killing at 8 ppm / killing at 10 ppm / killing at 15 ppm / killing at 20 ppm / killing at 25 ppm: Klebsiella aerogenes, pulp substrate, read-out: % Kill of E. aerugenes", "procedure": "(§2) Compounds 1 and 2 were tested by the pulp substrate method described in detail in U.S. Pat. No. 2,881,070, column 5, line 12--column 6, line 53. The disclosure of U.S. Pat. No. 2,881,070 is specifically incorporated here by reference. […] The tests utilized Enterobacter aerogenes and Pseudomonas aeruginosa in pulp substrates that had been buffered at pH 7.0 and 8.0."}, "[4]": {"tested_on": "Pseudomonas aeruginosa, Enterobacter serogenes and Bacillus subtilus", "experiment": "Preservation of acrylic latex paint, 9 week multiple challenge test (Table 1)", "type": "cell-based", "parameters": "key: 0: no growth was observed; +: less than 10 colonies were observed; ++: 10 or more colonies were observed", "procedure": "The preservative effectiveness of compounds 1 and 2 was determined in a freshly prepared water-based paint formulated with titanium dioxide and calcium carbonate as pigments, an acrylic resin emulsion, dispersants, and hydroxyethyl cellulose as a thickener. The pH of this paint was approximately 9.0. […] One hundred gram samples of the test paints were challenged initially and at the end of the third and sixth weeks in a three-challenge, nine-week test with 1.0 milliliter of […] containing Pseudomonas aeruginosa, Enterobacter serogenes and Bacillus subtilus at a level of approximately 1.5×10^6 organisms per milliliter. After vigorous shaking, the inoculated paint was incubated at 28° C. Growth in system was monitored by streaking a sample of each test paint onto a nutrient agar on plates at intervals of 1 day, 2 days, 3 days, 7 days, and 21 days after each challenge. The streaked plates were incubated at 37° C. and examined for bacterial growth after 24 hours (challenge 1). A second sample of the same inoculated paint was rechallenged at the end of 21 days (challenge 2) and again at the end of 42 days (challenge 3)."}, "[5]": {"tested_on": "E. aerogenes", "experiment": "Basal salts method, percentage kill of E. aerogenes (Table 5)", "type": "cell-based, Enterobacter aerogenes", "conditions": "Klebsiella aerogenes", "procedure": "as §1"}, "[6]": {"tested_on": "Pseudomonas aeruginosa", "experiment": "Pulp substrate method, percent kill of P. aeruginosa (Table 2)", "type": "cell-based", "procedure": "as §2"}, "[7]": {"conditions": "pH 7.0, read-out: % Kill of P. aeroginosa"}, "[8]": {"conditions": "pH 8.0, read-out: % Kill of P. aeroginosa"}},
  "note": "Read-outs that look alike come from different tables or passages of the source.",
  "data": [
    {"smiles": "COc1ccc(C(=O)C(Br)Br)cc1Br", "note": "[Compound 2, 2,2,3'-tribromo-4'-methoxyacetophenone]", "values": [
      {"measurement": "growth of Desulfovibrio desulfuricans", "setting": "[1]; 4 ppm", "value": 0},
      {"measurement": "growth of Desulfovibrio desulfuricans", "setting": "[1]; 8 ppm", "value": 0},
      {"measurement": "growth of Desulfovibrio desulfuricans", "setting": "[1]; 10 ppm", "value": 0},
      {"measurement": "growth of Desulfovibrio desulfuricans", "setting": "[1]; 15 ppm", "value": 0},
      {"measurement": "growth of Desulfovibrio desulfuricans", "setting": "[1]; 20 ppm", "value": 0},
      {"measurement": "killing at 10 ppm", "setting": "[2]; pH 6.0", "value": 99.8, "unit": "%"},
      {"measurement": "killing at 10 ppm", "setting": "[2]; pH 8.0", "value": 94, "unit": "%"},
      {"measurement": "killing at 20 ppm", "setting": "[2]; pH 6.0", "value": 100, "unit": "%"},
      {"measurement": "killing at 20 ppm", "setting": "[2]; pH 8.0", "value": 100, "unit": "%"},
      {"measurement": "killing at 30 ppm", "setting": "[2]; 30 ppm, pH 8.0", "value": 100, "unit": "%"},
      {"measurement": "killing at 1 ppm", "setting": "[3]; pH 7.0", "value": 12, "unit": "%"},
      {"measurement": "killing at 1 ppm", "setting": "[3]; pH 8.0", "value": 9, "unit": "%"},
      {"measurement": "killing at 2 ppm", "setting": "[3]; pH 7.0", "value": 22, "unit": "%"},
      {"measurement": "killing at 2 ppm", "setting": "[3]; pH 8.0", "value": 43, "unit": "%"},
      {"measurement": "killing at 4 ppm", "setting": "[3]; pH 7.0", "value": 41, "unit": "%"},
      {"measurement": "killing at 4 ppm", "setting": "[3]; pH 8.0", "value": 83, "unit": "%"},
      {"measurement": "killing at 8 ppm", "setting": "[3]; pH 7.0", "value": 35, "unit": "%"},
      {"measurement": "killing at 8 ppm", "setting": "[3]; pH 8.0", "value": 91, "unit": "%"},
      {"measurement": "killing at 10 ppm", "setting": "[3]; pH 7.0", "value": 39, "unit": "%"},
      {"measurement": "killing at 10 ppm", "setting": "[3]; pH 8.0", "value": 89, "unit": "%"},
      {"measurement": "killing at 15 ppm", "setting": "[3]; pH 7.0", "value": 52, "unit": "%"},
      {"measurement": "killing at 15 ppm", "setting": "[3]; pH 8.0", "value": 96, "unit": "%"},
      {"measurement": "killing at 20 ppm", "setting": "[3]; pH 7.0", "value": 45, "unit": "%"},
      {"measurement": "killing at 20 ppm", "setting": "[3]; pH 8.0", "value": 98, "unit": "%"},
      {"measurement": "killing at 25 ppm", "setting": "[3]; pH 7.0", "value": 51, "unit": "%"},
      {"measurement": "killing at 25 ppm", "setting": "[3]; pH 8.0", "value": 99, "unit": "%"},
      {"measurement": "bactericidal activity (in words)", "setting": "[3]; at both neutral and alkaline pH, conclusion from Table 2 (E. aerogenes and P. aeruginosa)", "value": "good bactericides"},
      {"measurement": "Observation of growth 21 days after challenge", "setting": "[4]; 100 ppm w/w, challenge 1", "value": "++ (10 or more colonies were observed)"},
      {"measurement": "Observation of growth 21 days after challenge", "setting": "[4]; 100 ppm w/w, challenge 2", "value": "++ (10 or more colonies were observed)"},
      {"measurement": "Observation of growth 21 days after challenge", "setting": "[4]; 100 ppm w/w, challenge 3", "value": "++ (10 or more colonies were observed)"},
      {"measurement": "Observation of growth 21 days after challenge", "setting": "[4]; 250 ppm w/w, challenge 1", "value": 0},
      {"measurement": "Observation of growth 21 days after challenge", "setting": "[4]; 250 ppm w/w, challenge 2", "value": 0},
      {"measurement": "Observation of growth 21 days after challenge", "setting": "[4]; 250 ppm w/w, challenge 3", "value": 0},
      {"measurement": "Observation of growth 21 days after challenge", "setting": "[4]; 500 ppm w/w, challenge 1", "value": 0},
      {"measurement": "Observation of growth 21 days after challenge", "setting": "[4]; 500 ppm w/w, challenge 2", "value": 0},
      {"measurement": "Observation of growth 21 days after challenge", "setting": "[4]; 500 ppm w/w, challenge 3", "value": 0},
      {"measurement": "Observation of growth 21 days after challenge", "setting": "[4]; 2500 ppm w/w, challenge 1", "value": 0},
      {"measurement": "Observation of growth 21 days after challenge", "setting": "[4]; 2500 ppm w/w, challenge 2", "value": 0},
      {"measurement": "Observation of growth 21 days after challenge", "setting": "[4]; 2500 ppm w/w, challenge 3", "value": 0},
      {"measurement": "Observation of growth 21 days after challenge", "setting": "[4]; 5000 ppm w/w, challenge 1", "value": 0},
      {"measurement": "Observation of growth 21 days after challenge", "setting": "[4]; 5000 ppm w/w, challenge 2", "value": 0},
      {"measurement": "Observation of growth 21 days after challenge", "setting": "[4]; 5000 ppm w/w, challenge 3", "value": 0},
      {"measurement": "killing at 2 ppm", "setting": "[5]; 2 ppm, pH 8.0", "value": 57, "unit": "%"},
      {"measurement": "killing at 4 ppm", "setting": "[5]; 4 ppm, pH 8.0", "value": 100, "unit": "%"},
      {"measurement": "killing at 8 ppm", "setting": "[5]; 8 ppm, pH 8.0", "value": 100, "unit": "%"},
      {"measurement": "killing at 10 ppm", "setting": "[5]; pH 6.0", "value": 100, "unit": "%"},
      {"measurement": "killing at 10 ppm", "setting": "[5]; pH 8.0", "value": 100, "unit": "%"},
      {"measurement": "killing at 20 ppm", "setting": "[5]; pH 6.0", "value": 100, "unit": "%"},
      {"measurement": "killing at 20 ppm", "setting": "[5]; pH 8.0", "value": 100, "unit": "%"},
      {"measurement": "killing at 30 ppm", "setting": "[5]; pH 6.0", "value": 100, "unit": "%"},
      {"measurement": "killing at 30 ppm", "setting": "[5]; pH 8.0", "value": 100, "unit": "%"},
      {"measurement": "killing at 1 ppm", "setting": "[6]; [7]", "value": 15, "unit": "%"},
      {"measurement": "killing at 1 ppm", "setting": "[6]; [8]", "value": 0, "unit": "%"},
      {"measurement": "killing at 2 ppm", "setting": "[6]; [7]", "value": 0, "unit": "%"},
      {"measurement": "killing at 2 ppm", "setting": "[6]; [8]", "value": 54, "unit": "%"},
      {"measurement": "killing at 4 ppm", "setting": "[6]; [7]", "value": 36, "unit": "%"},
      {"measurement": "killing at 4 ppm", "setting": "[6]; [8]", "value": 25, "unit": "%"},
      {"measurement": "killing at 8 ppm", "setting": "[6]; [7]", "value": 17, "unit": "%"},
      {"measurement": "killing at 8 ppm", "setting": "[6]; [8]", "value": 71, "unit": "%"},
      {"measurement": "killing at 10 ppm", "setting": "[6]; [7]", "value": 80, "unit": "%"},
      {"measurement": "killing at 10 ppm", "setting": "[6]; [8]", "value": 86, "unit": "%"},
      {"measurement": "killing at 15 ppm", "setting": "[6]; [7]", "value": 97, "unit": "%"},
      {"measurement": "killing at 15 ppm", "setting": "[6]; [8]", "value": 94, "unit": "%"},
      {"measurement": "killing at 20 ppm", "setting": "[6]; [7]", "value": 98, "unit": "%"},
      {"measurement": "killing at 20 ppm", "setting": "[6]; [8]", "value": 99, "unit": "%"},
      {"measurement": "killing at 25 ppm", "setting": "[6]; [7]", "value": 97, "unit": "%"},
      {"measurement": "killing at 25 ppm", "setting": "[6]; [8]", "value": 99, "unit": "%"}
    ]}
  ]
}
